From PubChem BioAssay (NCI) come the findings set out here.

Test systems include SK-MEL-28 melanoma; CAKI-1 renal; T-47D breast; HOP-62 NSCLC; NCI/ADR-RES ovarian; SF-268 CNS; HL-60(TB) leukemia; MDA-MB-231 breast; UACC-62 melanoma; A498 renal.
Common to all, as to experiment: inhibition of tumour cell growth, NCI panel, 48 h

Where “and” joins values, the source holds several entries; their conditions need not be identical. Equal values may be shown once.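 These data come from cells grown in 96-well plates and exposed to compound for 48 hours at five concentrations. GI50 = concentration required for 50% inhibition of growth. TGI is the concentration that stops growth completely.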

As for `O=C(c1ccccc1)c1ccc2[nH]c(-c3c(Cl)c(Cl)c(Cl)c(Cl)c3C(=O)N/N=C/c3cccc(Oc4ccccc4)c3)nc2c1`, the TGI in the assay on SK-MEL-28 melanoma, in the assay on CAKI-1 renal, in the assay on T-47D breast, in the assay on HOP-62 NSCLC, in the assay with NCI/ADR-RES ovarian and in the assay on SF-268 CNS was over 100 µM in each case. In addition, the TGI in the assay with HL-60(TB) leukemia and in the assay with MDA-MB-231 breast was over 100 µM throughout.

Turning to `Nc1nc2ncc(CNc3ccc(C(=O)NC(CCC(=O)O)C(=O)O)cc3)nc2c(=O)[nH]1` (stereo not drawn), the TGI in the assay on SK-MEL-28 melanoma, in the assay with HOP-62 NSCLC, in the assay with NCI/ADR-RES ovarian, in the assay on UACC-62 melanoma and in the assay on SF-268 CNS was over 100 µM in each case.

For `O=C(CN1CCOCC1)c1ccc2c(c1)oc(=O)n2CCN1CCOCC1`, the TGI in the assay with SK-MEL-28 melanoma, with CAKI-1 renal, with HOP-62 NSCLC, in the assay with NCI/ADR-RES ovarian, in the assay with A498 renal and in the assay on SF-268 CNS was over 100 µM in each case. The TGI in the assay with HL-60(TB) leukemia and in the assay on MDA-MB-231 breast was over 100 µM each time.

On to `O=c1[nH]nc(-c2ccccc2)n1/N=C/c1cccs1`, for which the TGI in the assay with SK-MEL-28 melanoma is over 100 µM; with CAKI-1 renal, over 100 µM; with T-47D breast, over 100 µM; with HOP-62 NSCLC, over 100 µM; with NCI/ADR-RES ovarian, 93.8 µM; in the assay on UACC-62 melanoma, over 100 µM. In addition, the TGI with A498 renal, with SF-268 CNS and in the assay on MDA-MB-231 breast was over 100 µM each time.

In the case of `COc1ccc(N2C(=O)C3c4[nH]c5ccc(Br)cc5c4C4CCC(C(C)(C)C)CC4C3C2=O)cc1` (stereo not drawn), the TGI with SK-MEL-28 melanoma, with CAKI-1 renal, in the assay on HOP-62 NSCLC, in the assay on NCI/ADR-RES ovarian, in the assay with UACC-62 melanoma and with A498 renal was over 100 µM in each case. In addition, the TGI with SF-268 CNS, in the assay on HL-60(TB) leukemia and in the assay on MDA-MB-231 breast was over 100 µM in each case.

Turning to `NCCCC[C@H](N)C(=O)Nc1ccc(-c2nc3ccccc3s2)cc1`, the TGI in the assay on SK-MEL-28 melanoma is 33.8 µM; in the assay on CAKI-1 renal, over 100 µM; in the assay on T-47D breast, over 100 µM; in the assay on HOP-62 NSCLC, 62 µM; in the assay on NCI/ADR-RES ovarian, 59.7 µM; in the assay with UACC-62 melanoma, 59.7 µM. In addition, the TGI with A498 renal is 72.9 µM; in the assay on SF-268 CNS, 55.6 µM; in the assay on MDA-MB-231 breast, 37.6 µM.

As to `COC1CC(COCc2ccccc2)CC(OC)O1` (stereo not drawn), the TGI in the assay on CAKI-1 renal, in the assay on T-47D breast, with HOP-62 NSCLC, in the assay with NCI/ADR-RES ovarian, in the assay with UACC-62 melanoma and with A498 renal was over 100 µM in each case. Also, the TGI in the assay on SF-268 CNS was over 100 µM; in the assay on HL-60(TB) leukemia, 1.84 µM.

Turning to `NC(=O)NCCCC(NC(=O)OCCCCCCn1ccc(=O)[nH]c1=O)C(=O)O` (stereo not drawn), the TGI with SK-MEL-28 melanoma, with CAKI-1 renal, in the assay with T-47D breast, in the assay on HOP-62 NSCLC, in the assay on NCI/ADR-RES ovarian and in the assay with UACC-62 melanoma was over 100 µM each time. Further, the TGI in the assay with SF-268 CNS, with HL-60(TB) leukemia and in the assay with MDA-MB-231 breast was over 100 µM each time.

For `CC[C@@]1(C)CCC2c3ccc(O)cc3CC[C@H]2C1C` (stereo partly drawn), the TGI in the assay on SK-MEL-28 melanoma came to 32 µM; in the assay with CAKI-1 renal it was 35.7 µM; in the assay on T-47D breast, 39.3 µM; in the assay with HOP-62 NSCLC, 33 µM; in the assay on NCI/ADR-RES ovarian it was 35.7 µM; in the assay with UACC-62 melanoma, 28.4 µM. Besides, the TGI with A498 renal was determined as 34 µM; in the assay with SF-268 CNS, 30.1 µM; with HL-60(TB) leukemia, 29 µM.

Turning to `CC(C)=CCC/C(C)=C/CC/C(C)=C/CC/C(C)=C/CC/C(C)=C/CC/C(C)=C/CC/C(C)=C/CC/C(C)=C/CC/C(C)=C/CO`, the TGI with SK-MEL-28 melanoma, in the assay on CAKI-1 renal, in the assay with T-47D breast, in the assay on HOP-62 NSCLC, with UACC-62 melanoma and with A498 renal was over 100 µM in each case. Besides, the TGI in the assay on SF-268 CNS, in the assay on HL-60(TB) leukemia and with MDA-MB-231 breast was over 100 µM in each case.

Take `COC(=O)c1cc(C(=CCC[C@H]2CC[C@@]3(C)C(CCC4C3CC[C@@]3(C)C4CC[C@@H]3C(C)CCCC(C)C)C2)c2cc(Cl)c(O)c(C(=O)OC)c2)cc(Cl)c1O` (stereo partly drawn): the TGI in the assay with SK-MEL-28 melanoma, with CAKI-1 renal, with T-47D breast, in the assay with HOP-62 NSCLC, in the assay with NCI/ADR-RES ovarian and in the assay with UACC-62 melanoma was over 10 µM throughout. Besides, the TGI in the assay on SF-268 CNS, in the assay on HL-60(TB) leukemia and in the assay with MDA-MB-231 breast was over 10 µM throughout.

For the molecule `CC(=O)OCC1OC(n2c(-c3ccccc3)c(C(C)=O)c(-c3cccc4ccccc34)c(C#N)c2=S)C(OC(C)=O)C(OC(C)=O)C1OC(C)=O` (stereo not drawn), the TGI in the assay on SK-MEL-28 melanoma, in the assay on T-47D breast, in the assay with HOP-62 NSCLC, in the assay with NCI/ADR-RES ovarian, with UACC-62 melanoma and in the assay with A498 renal was over 100 µM each time. Also, the TGI with SF-268 CNS, in the assay with HL-60(TB) leukemia and in the assay with MDA-MB-231 breast was over 100 µM throughout. Besides, in the assay on UACC-62 melanoma, the GI50 was 80.4 µM and 26.7 µM.

Regarding `CC(C)NC(=O)OCc1c(CO)c2c(n1C)-c1ccccc1CC2`, the TGI was 64.4 µM in the assay with SK-MEL-28 melanoma; 29.7 µM in the assay on CAKI-1 renal; over 93.3 µM with HOP-62 NSCLC; 61.4 µM in the assay on NCI/ADR-RES ovarian; 36.6 µM with UACC-62 melanoma; over 100 µM with A498 renal. For the same molecule, the TGI is over 100 µM in the assay on SF-268 CNS and over 58.3 µM with HL-60(TB) leukemia.

Take `Cc1c2c(c(O)c3c(O)cccc13)C(=O)C1(O)C(O)=C(C(=O)NCNc3ccc(C(N)=O)cn3)C(=O)C(N(C)C)C1C2` (stereo not drawn): the TGI with SK-MEL-28 melanoma is 14.6 µM; in the assay with CAKI-1 renal, 48.4 µM; with T-47D breast, over 100 µM; with HOP-62 NSCLC, over 100 µM; in the assay on NCI/ADR-RES ovarian it was over 100 µM; in the assay with UACC-62 melanoma it was 9.59 µM. Also, the TGI with A498 renal was 9.33 µM; in the assay on SF-268 CNS it was 79.7 µM; with MDA-MB-231 breast, over 100 µM.

On to `N#CC(Cc1ccccc1)N(CCC1=CCCCC1)Cc1ccccc1` (stereo not drawn), for which the TGI in the assay on SK-MEL-28 melanoma, in the assay with CAKI-1 renal, with T-47D breast, in the assay with HOP-62 NSCLC, in the assay with NCI/ADR-RES ovarian and with UACC-62 melanoma was over 100 µM in each case. Moreover, the TGI in the assay on A498 renal, with SF-268 CNS and in the assay on MDA-MB-231 breast was over 100 µM throughout.
